A value given as a limit tells only on which side of the number the result lay.

In assay [1] the test system is E. coli UT189[pCOMGFP]. As to the kind of experiment: Biofilm pods (IBCs) in bladders of infected mice, intravesical compound, confocal microscopy. The following applies: vs controls. Format: in vivo, Escherichia coli. On the procedure:
The procedures in this example has been previously reported by Justice, S. et al. Differentiation and development pathways of uropathogenic Escherichia coli in urinary tract pathogenesis. PNAS, 2004, 101(5), p. 1333-1338. Briefly, E. coli UT189[pCOMGFP] was prepared after retrieval from frozen stocks by inoculating appropriately in LB medium statically for approximately 20 hours. Cells were harvested and suspended in 1 ml of PBS. Cells were diluted appropriately to achieve approximately a 10^8 CFU or 10^7 CFU input into C3H/HeN mice (2 mice per group).
Mice were deprived of water for approximately two hours. In experiment 1, all mice were anesthetized with 0.15 cc ketamine cocktail. In experiment 2, all mice were anesthetized with isofluorane. In experiment 1, urine was dispelled from the bladders and approximately 40 μg/ml of test compound or an appropriate amount of ethanol as control was introduced into the bladders via catheterization of the urethra using a tubing coated tuberculin syringe. 30 minutes was allowed to elapse. In experiment 2, bladders were not pre-incubated with test compounds. Bladders were then expelled and an inoculum of 10^8 CFU (Experiment 1) or 10^7 CFU (Experiment 2) of E. coli containing 40 μg/ml of test compound or equivalent amount of ethanol as controls were introduced into the bladders as indicated above.
In experiment 1 five hours elapsed and in experiment 2 six hours elapsed, and then mice were anesthetized and sacrificed appropriately. The bladders were removed, bisected, stretched, and fixed in 3% paraformaldehyde for 1 hour at room temperature. Bladders were then permeabilized in 0.01% Triton/PBS for 10 minutes and counter stained with TOPRO3 (Molecular Probes) for 10 minutes for visualization by confocal microscopy. Bladders were mounted on Prolong antifade (Molecular Probes).

For assay [2], the system named is S. sobrinus 6715. Kind of assay: Biofilm growth inhibition in 1 mL polycarbonate tubes. Type of assay: cell-based. The following applies: Streptococcus sobrinus, 40 μg/mL.

`C[C@H]1[C@H](C)CC[C@]2(C(=O)O)CC[C@]3(C)C(=CC[C@@H]4[C@@]5(C)C[C@@H](O)[C@H](O)[C@@](C)(CO)[C@@H]5CC[C@]43C)[C@H]12` [Asiatic acid]: the “reduction in biofilm pods or IBCs in the bladders of mice” value in assay [1] (experiment 1: C3H/HeN mice, 40 μg/ml intravesical with 30 min pre-incubation, 10^8 CFU, five hours) was found to be 77%. The “reduction in large biofilm pods or large IBCs in the bladders of mice” value in assay [1] (experiment 2: C3H/HeN mice, 40 μg/ml in inoculum, no pre-incubation, 10^7 CFU, six hours) is around 60%. The same compound gave an inhibition at 40 µg/mL in assay [2] above 75%.

The term inhibition denotes the relative decrease from the control value, in per cent.

For the origin of these results see patent publication US20070014739A1, “Compositions and methods for controlling biofilms and bacterial infections” (priority 2005, published 2007).
